# According to patent US9889182B2, “Assisted enzyme replacement therapy” (The Regents of the University of California, priority 2009, dated 2018):
# Marks after values point to notes of the source that are not given here.
# B1: Aldurazyme: recombinant therapeutic α-1-iduronidase (protein, UniProt P35475 28-653, looked up)
# Alpha-L-iduronidase: APHLVHVDAARALWPLRRFWRSTGFCPPLPHSQADQYVLSWDQQLNLAYVGAVPHRGIKQVRTHWLLELVTTRGSTGRGLSYNFTHLDGYLDLLRENQLLPGFELMGSASGHFTDFEDKQQVFEWKDLVSSLARRYIGRYGLAHVSKWNFETWNEPDHHDFDNVSMTMQGFLNYYDACSEGLRAASPALRLGGPGDSFHTPPRSPLSWGLLRHCHDGTNFFTGEAGVRLDYISLHRKGARSSISILEQEKVVAQQIRQLFPKFADTPIYNDEADPLVGWSLPQPWRADVTYAAMVVKVIAQHQNLLLANTTSAFPYALLSNDNAFLSYHPHPFAQRTLTARFQVNNTRPPHVQLLRKPVLTAMGLLALLDEEQLWAEVSQAGTVLDSNHTVGVLASAHRPQGPADAWRAAVLIYASDDTRAHPNRSVAVTLRLRGVPPGPGLVYVTRYLDNGLCSPDGEWRRLGRPVFPTAEQFRRMRAAEDPVAAAPRPLPAGGRLTLRPALRLPSLLLVHVCARPEKPPGQVTRLRALPLTQGQLVLVWSDEHVGSKCLWTYEIQFSQDGKAYTPVSRKPSTFNLFVFSPDTGAVSGSYRVRALDYWARPGPFSDPVPYLEVPVPRGPPSPGNP
# modifications: laronidase
# notes: recombinant therapeutic α-1-iduronidase
# B2: AP-α-1-iduronidase: α-1-iduronidase treated with alkaline phosphatase (protein, UniProt P35475 28-653, looked up)
# Alpha-L-iduronidase: B1 Alpha-L-iduronidase
# modifications: dephosphorylated by alkaline phosphatase
# notes: α-1-iduronidase treated with alkaline phosphatase
# B3: GNeo-AP-α-1-iduronidase: GNeo conjugated to AP-α-1-iduronidase (conjugate, UniProt P35475 28-653, looked up)
# Alpha-L-iduronidase: B1 Alpha-L-iduronidase
# modifications: GNeo conjugate, dephosphorylated
# notes: GNeo conjugated to AP-α-1-iduronidase
# B4: hGUS: human recombinant GUS (protein, UniProt P08236 23-651, looked up)
# Beta-glucuronidase: LQGGMLYPQESPSRECKELDGLWSFRADFSDNRRRGFEEQWYRRPLWESGPTVDMPVPSSFNDISQDWRLRHFVGWVWYEREVILPERWTQDLRTRVVLRIGSAHSYAIVWVNGVDTLEHEGGYLPFEADISNLVQVGPLPSRLRITIAINNTLTPTTLPPGTIQYLTDTSKYPKGYFVQNTYFDFFNYAGLQRSVLLYTTPTTYIDDITVTTSVEQDSGLVNYQISVKGSNLFKLEVRLLDAENKVVANGTGTQGQLKVPGVSLWWPYLMHERPAYLYSLEVQLTAQTSLGPVSDFYTLPVGIRTVAVTKSQFLINGKPFYFHGVNKHEDADIRGKGFDWPLLVKDFNLLRWLGANAFRTSHYPYAEEVMQMCDRYGIVVIDECPGVGLALPQFFNNVSLHHHMQVMEEVVRRDKNHPAVVMWSVANEPASHLESAGYYLKMVIAHTKSLDPSRPVTFVSNSNYAADKGAPYVDVICLNSYYSWYHDYGHLELIQLQLATQFENWYKKYQKPIIQSEYGAETIAGFHQDPPLMFTEEYQKSLLEQYHLGLDQKRRKYVVGELIWNFADFMTEQSPTRVLGNKKGIFTRQRQPKSAAFLLRERYWKIANETRYPHSVAKSQCLENSLFT
# B5: AP-hGUS: hGUS treated with alkaline phosphatase (protein, UniProt P08236 23-651, looked up)
# Beta-glucuronidase: B4 Beta-glucuronidase
# modifications: dephosphorylated by alkaline phosphatase
# B6: GNeo-AP-hGUS: GNeo conjugate of alkaline phosphatase-treated hGUS (conjugate, UniProt P08236 23-651, looked up)
# Beta-glucuronidase: B4 Beta-glucuronidase
# modifications: GNeo conjugate, dephosphorylated
# What was measured:
# 10T1/2 cells = experiment: FACS cellular uptake of BODIPY conjugates in 10T1/2 cells; type: cell-based, mouse; conditions: for Mean Fluorescence Intensity of treated cells according to FACS, 10T1/2: 0.5 μM of each compound for 1 hr, average of 10,000 cells; for cellular uptake / cellular uptake compared to poly-Arg peptide BODIPY-Cys(Arg)9: FACS; for cellular uptake: slightly above autofluorescence of the cell; for cellular uptake compared to poly-Arg peptide BODIPY-Cys(Arg)9: Table 1
# Experimental: (§1) 10T1/2 cells, an adherent non-transformed mouse fibroblast cell line, and HeLa cells, a common human cancer cell line, were purchased from ATCC and used before their 20th passage. Both cell lines were cultured in Dulbecco's modified eagle medium containing 10% fetal bovine serum at 37° C. in an 8% CO2 environment. For each experiment, cells were seeded onto 4 cm tissue culture plates (Nunc) and allowed to grow overnight to ˜80% confluency.
# (§2) Compounds 1-5 identified in Table 1, below (0.5-1 μM), were added to each dish and incubated at 37° C./8% CO2 for 0.5-1 hr. Cells were then washed once in PBS, trypsinized with 500 μl ATV solution (Gibco) for 3 minutes, pelleted in a fixed angle centrifuge for 5 minutes at 5,000×G, then brought up in 1 mL PBS. Each sample was quickly (within 5 minutes) analyzed on a FACS VantageSE cell sorter (Becton-Dickinson) using the 488 nm argon/krypton laser line and a 530 nm band pass emission filter. 2,000-10,000 cells were counted per sample.
# HeLa cells = experiment: FACS cellular uptake of BODIPY conjugates in HeLa cells; type: cell-based, human; conditions: 1 μM of each compound for 0.5 hr; average of 2,000 cells; about 10-fold higher instrumental gain than 10T1/2
# Experimental: as §1, §2
# Wild-type CHO cells = experiment: Live-cell uptake of fluorescent guanidinoneomycin conjugate (streptavidin-Alexa-488), microscopy; type: cell-based, Chinese hamster; conditions: 0.4 M sucrose; 5 mM amiloride
# Experimental: Microscopy—Cells were cultured on Lab-Tek chambered coverglass slides (Electron Microscopy Sciences) in F12 medium. After washing with PBS, cells were incubated for 1 h in 1 ml of 60 nM guanidinoneomycin coupled to streptavidin-Alexa-488 (Molecular Probes) at 37° C. Guanidinoneomycin-A488 was prepared by incubating 1 μM guanidinoneomycinbiotin with 6 μg of streptavidin-Alexa-488 in 1 ml of medium. Hoechst 33342 (2 μg/ml; Molecular Probes) was added to cells for the last 20 min of incubation. Cells were washed three times with F12 medium before live cell imaging. Microscopic images were acquired on an Olympus IX70 DeltaVision Spectris Image Deconvolution system, equipped with a temperature and atmospherically controlled stage. Images were deconvolved (10 cycles) using SoftWoRx Explorer Suite software.
# WT CHO-K1 cells = experiment: Competition of guanidinoneomycin construct uptake by model glycans; type: cell-based, Chinese hamster
# MPS I fibroblasts = experiment: [35S]glycosaminoglycan turnover, label-chase, MPS I fibroblasts; type: cell-based, human; conditions: enzyme 2 hours, chase 24 hours
# Experimental: (§3) To test whether internalized GUS was functionally localized in lysosomes, a label-chase format was used in which cells were incubated with ^35S-labeled sulfate for 24 hours to radiolabel the sulfated glycosaminoglycans. The medium was changed, and after 24 hours, the amount of [^35S]glycosaminoglycans that remained associated with the cells was quantitated. Normal and MPS fibroblasts were incubated in DMEM/F12 medium supplemented with 10% dialyzed fetal bovine serum in order to increase the radiospecific activity of added ^35S4. Cells were seeded in a 12-well plate, and at confluence, 50 μCi of Na[^35S]O4 (PerkinElmer) was added in 1 ml of fresh medium. After 24 hours, the cells were rinsed twice with PBS, exposed to GUS or α-iduronidase for 2 hours, rinsed twice, and then chased for 24 hours in complete growth medium. The cells were harvested with trypsin, centrifuged (500 g, 5 minutes), and washed once. The sedimented cells were then resuspended in 100 μl of RIPA buffer (Sigma) and counted by liquid scintillation spectrometry using Scintillator Ultima Gold XR (PerkinElmer).
# MPS VII fibroblasts [1] = experiment: Uptake of GUS enzymes by MPS VII fibroblasts (β-glucuronidase activity); type: cell-based, human
# Experimental: GUS activity was measured by assaying the conversion of 4-methylumbelliferyl β-d-glucuronide (MUG; Sigma) into the fluorochrome 4-methylumbelliferone. The assay was performed in 96-well plates, using 100 μl of reaction buffer containing 50 mmol/L sodium acetate (pH 5.2), 10 mmol/L EDTA, 0.01% bovine serum albumin, 0.1% Triton X-100, […] of MUG, and enzyme. After 1 hour at 37° C., fluorescent product was measured by fluorimetry (excitation at 360 nm, emission at 460 nm) and quantified using a standard curve of 4-methylumbelliferone. One unit (U) of activity is defined as the liberation of […] of 4-methylumbelliferone per hour at pH 5.2, 37° C. α-1-iduronidase activity was measured in a similar way using 4-methylumbelliferyl α-1-iduronide (Glycosynth, Warrington, UK) as substrate. The assay was performed in 10 μl of 50 mmol/L sodium formate (pH 3) buffer containing 10 mmol/L NaCl, 0.1 mg/ml bovine serum albumin, 50 μmol/l substrate, and 2 μl of enzyme.
# To test whether GNeo-bGus was taken up by GUS-deficient cells, enzyme activity was measured in MPR VII fibroblasts after 2-hour incubation with various concentrations of unmodified bGus and G-Neo-bGus (see FIG. 15a). Normal HFF, MPS VII, and MPS I fibroblasts were cultured in Earl's Minimal Essential Medium supplemented with 15% of fetal bovine serum and penicillin/streptomycin (Invitrogen). Approximately 8×10^4 cells in 0.4 ml of medium were seeded in each well of a 24-well plate. After 3 days, cells were incubated in fresh medium with and without 5 mmol/L of M6P or glucose 6-phosphate (G6P) (Sigma). The cells were incubated for 2 hours at 37° C., washed twice with PBS, treated with trypsin/EDTA, and then combined with complete medium to inhibit the trypsin. […] In some experiments, cells were treated 3 hours with recombinant heparin lyases I, II, and III (5 mU/ml) in serum-free medium, and uptake was measured as described above in medium containing heparinases. Enzyme activity in the cell extracts was measured in triplicate using 5 μg of total cell protein. […]
# MPS VII fibroblasts [2] = experiment: [35S]glycosaminoglycan turnover, label-chase, MPS VII fibroblasts; type: cell-based, human; conditions: enzyme 2 hours, chase 24 hours
# Experimental: as §3
molecule,measurement,setting,value
tobra-BODIPY [Tobra-BODIPY (1)],"Mean Fluorescence Intensity of treated cells according to FACS, 10T1/2",10T1/2 cells,60
same,cellular uptake,10T1/2 cells,poor cellular uptakes
same,"Mean Fluorescence Intensity of treated cells according to FACS, HeLa",HeLa cells,"1,000"
"NC[C@H]1O[C@H](O[C@H]2[C@H](O)[C@@H](O[C@H]3O[C@H](CO)[C@@H](O)[C@H](N)[C@H]3O)[C@H](N)C[C@@H]2N)[C@H](N)C[C@@H]1O [tobramycin, reference compound]",enhancement of cellular uptake upon guanidinylation,"10T1/2 cells; relative to autofluorescence, BODIPY conjugates, FIG. 3 and Table 1",approximately 10 fold
"BODIPY-Cys(Arg)9 (CRRRRRRRRR; N-acetyl, C-amide, BODIPY label on Cys) [BODIPY-Cys (Arg)9 (5), common poly-Arg transduction peptide, reference compound]","Mean Fluorescence Intensity, 10T1/2, in presence of 10 μM (6)","10T1/2 cells; 0.5 μM BODIPY-Cys(Arg)9 + 10 μM guanidine-neomycin B (6), 1 hr",110
same,"Mean Fluorescence Intensity, 10T1/2, in presence of 50 μM (6)","10T1/2 cells; 0.5 μM BODIPY-Cys(Arg)9 + 50 μM guanidine-neomycin B (6), 1 hr",90
same,"Mean Fluorescence Intensity, 10T1/2, in presence of 200 μM (6)","10T1/2 cells; 0.5 μM BODIPY-Cys(Arg)9 + 200 μM guanidine-neomycin B (6), 1 hr",70
same,"Mean Fluorescence Intensity of treated cells according to FACS, 10T1/2",10T1/2 cells,280
same,"Mean Fluorescence Intensity of treated cells according to FACS, HeLa",HeLa cells,"2,000"
N=C(N)NC(=O)c1nc(Cl)c(N)nc1N [amiloride],effect on internalization of fluorescent guanidinoneomycin conjugate,Wild-type CHO cells,no effect
guanidino-tobra-BODIPY [Guanidino-Tobra-BODIPY (2)],"Mean Fluorescence Intensity of treated cells according to FACS, 10T1/2",10T1/2 cells,240
same,cellular uptake compared to poly-Arg peptide BODIPY-Cys(Arg)9,10T1/2 cells,approximately the same transport efficiency
same,"Mean Fluorescence Intensity of treated cells according to FACS, HeLa",HeLa cells,"2,100"
neo-BODIPY [Neo-BODIPY (3)],"Mean Fluorescence Intensity of treated cells according to FACS, 10T1/2",10T1/2 cells,60
same,cellular uptake,10T1/2 cells,poor cellular uptakes
same,"Mean Fluorescence Intensity of treated cells according to FACS, HeLa",HeLa cells,"~1,400^(e)"
guanidino-Neo-BODIPY [Guanidino-Neo-BODIPY (4)],"Mean Fluorescence Intensity of treated cells according to FACS, 10T1/2",10T1/2 cells,430
same,cellular uptake compared to poly-Arg peptide BODIPY-Cys(Arg)9,10T1/2 cells,better cellular uptake
same,"Mean Fluorescence Intensity of treated cells according to FACS, HeLa",HeLa cells,"7,900"
OC[C@H]1O[C@@](CO)(O[C@H]2O[C@H](CO)[C@@H](O)[C@H](O)[C@H]2O)[C@@H](O)[C@@H]1O [sucrose],effect on internalization of fluorescent guanidinoneomycin conjugate,Wild-type CHO cells,marked decrease in internalization
"dermatan sulfate [Dermatan sulfate, DS (G)]",inhibition of cellular uptake of either construct (words),WT CHO-K1 cells; listed as Dermatan sulfate,failed to inhibit
same,inhibition of cellular uptake of either construct (words),WT CHO-K1 cells; listed as dermatan sulfate,no significant inhibition
B1,"ED50, [35S]glycosaminoglycan turnover",MPS I fibroblasts,1 U
B2,"ED50, [35S]glycosaminoglycan turnover",MPS I fibroblasts,30 U
B3,"ED50, [35S]glycosaminoglycan turnover",MPS I fibroblasts,0.2 units
B4,effect of heparin lyase treatment of cells on uptake,MPS VII fibroblasts [1],insensitive
same,effect of M6P on uptake,MPS VII fibroblasts [1]; 5 mmol/l M6P,greatly inhibited uptake
same,uptake,MPS VII fibroblasts [1]; 2-hour incubation,robust
same,"ED50, [35S]glycosaminoglycan turnover",MPS VII fibroblasts [2],~3 mU
B5,"ED50, [35S]glycosaminoglycan turnover",MPS VII fibroblasts [2],~300 mU
B6,"ED50, [35S]glycosaminoglycan turnover",MPS VII fibroblasts [2],~10 mU
